Source: publication PMC8658963, “Synthesis and Evaluation of Trypanocidal Activity of Chromane-Type Compounds and Acetophenones” (Molecules, 2021)
Where two headings read alike, the source gives them in different places.

Columns and labels:
[1] = system: human monocyte cell line U-937 (ATCC CRL-1593.2); assay: Cytotoxic activity, MTT reduction assay, 72 h; settings: for Cytotoxicity level (grade): U937 cells, graded by LC50
Method: (§1) Cytotoxicity was evaluated in the human monocyte cell line U-937 (ATCC CRL-1593.2) at the exponential growth phase, adjusted at 1 × 10^5 cells/mL in complete RPMI-1640 medium (RPMI-1640 enriched with 200 mM L-glutamine, 10% inactivated fetal bovine serum (FBS) and 1% of a mixture of 10,000 IU/mL penicillin plus […] streptomycin). Then, in each well of a 96-well tissue culture plate were dispensed […] of cells plus […] of each compound (as one of six serials 1:2 dilution concentrations starting at 368 µM prepared in the same medium). Doxorubicin was included as an internal positive control under the same dilution pattern, starting at 18 µM whereas unexposed cells were used as negative controls. Afterward, cells were incubated for 72 h at 37 °C and 5% CO2. Cell viability was assayed by the MTT reduction assay according to the optical density (O.D) at 570 nm of the resulting reduction of formazan in a Varioskan Flash Multimode Reader (Thermo Scientific, Waltham, MA, USA). Nonspecific absorbance was corrected by subtracting the O.D of the blank solution that corresponded to complete RPMI-1640 medium. The assay was done in triplicate in at least two independent experiments.
(§2) The cytotoxicity was expressed as the medial lethal concentration (LC50), while the trypanocidal activity was defined as the median effective concentration (EC50) according to the percentage of inhibition of cells and parasites, respectively, as described elsewhere. Both LC50 and EC50 were calculated by the Probit analysis. […] Similarly, the trypanocidal activity was graded according to EC50 values, based on the hit criteria proposed by others into high when EC50 was lower than 10 μM, moderate when EC50 values were higher than 10 μM but lower than 50 μM and, low when EC50 was higher than 50 μM. The relation between cytotoxicity and trypanocidal activity was expressed as the index of selectivity (IS) that corresponded to the ratio when dividing the LC50 by the EC50.

in vitro = settings: human, Cytotoxicity (LC50)
Method: as §1, §2

[2] = system: intracellular amastigotes of T. cruzi (Tulahuen strain transfected with the β-galactosidase gene); assay: Anti-trypanosomal activity, β-galactosidase readout in infected U937 macrophages, 72 h; format: cell-based, Trypanosoma cruzi; settings: for EC50: Trypanosoma cruzi, TULAHUEN
Method: This activity was carried out in intracellular amastigotes of T. cruzi (Tulahuen strain transfected with the β-galactosidase gene. Briefly, metacyclic trypomastigotes were cultured at 26 °C for ten days in a modified NNN (Novy−McNeal−Nicolle) medium. U937 cells were seeded in 96-well tissue culture plates at a density of 2.5 × 10^4 cells in 100 μL of complete RPMI-1640 medium/well and exposed for 24 h to phorbol myristate acetate (1 ng/mL) to induce transformation of monocytes into macrophages. Cells were infected with trypomastigotes (5 parasites per cell) and incubated for 24 h at 37 °C, 5% CO2. Wells were washed twice with warm phosphate buffer solution (PBS) to remove noninternalized parasites, and then were added 100 μL of complete RPMI-1640 medium and 100 μL of each concentration of compound (50, 12.5, 3.125 μM). BNZ, at the same concentrations, was used as internal control for trypanocidal activity (positive control), and nontreated cells as controls for infection (negative control). After 72 h of incubation 37 °C, 5% CO2, the viability of intracellular amastigotes was determined by measuring the β-galactosidase activity. For this, 100 μM of Chlorophenol red-β-D- galactopyranoside (CPRG), and 0.1% Nonidet P-40 was added to each well and incubated for 4 h at 37 °C, […] protected from light. After that, measurement β-galactosidase activity was measured at 570 nm on a Varioskan, Thermo spectrophotometer. Nonspecific absorbance was subtracted from the measurement. Infected cells exposed to benznidazole were used as controls for anti-trypanosomal activity. Determinations were done in triplicate with at least two independent experiments.

| SMILES | Cytotoxicity level (grade) [1] | CC50 ([1]; human, 72 h) [µM] | CC50 at 72 h (in vitro) [µM] | Trypanocidal activity compared with the control drug BNZ ([2]; T. cruzi intracellular amastigotes, result in words) | EC50 ([2]; U-937, 72 h, intracellular amastigotes of T. cruzi Tulahuen in U937 macrophages, 72 h, average ± SD (SEM), read-out: Trypanocidal Activity (EC50)) [µM] | EC50 ([2]; U-937, T. cruzi intracellular amastigotes, graded by EC50, read-out: Trypanocidal activity (grade)) [µM] |
| --- | --- | --- | --- | --- | --- | --- |
| CC(=O)c1cc(O)ccc1O [Compound 6, 1-(2,5-Dihydroxyphenyl)ethan-1-one] | high (high when LC50 values were lower than 50 μM) | 6.3 | < 10 | much better trypanocidal activity than the control drug BNZ | – | – |
| O=C(Cn1ccnc1[N+](=O)[O-])NCc1ccccc1 [BNZ, benznidazole, reference compound] | no cytotoxicity | – | > 768 | – | 56.5 ± 1.5 | 10 to 50 |
